Here are results for one compound from paper PMC12974487, “Inhibition of FicD-mediated AMPylation and deAMPylation by isoprenoid diphosphates” (Proceedings of the National Academy of Sciences of the …, 2026).

The experiment concerns the target T1, FicD^E234G (Homo sapiens, UniProt Q9BVA6, E234G).
T1 construct: soluble ER luminal domain (residues 105 to 458) of wild-type human FicD and three mutants; 6xHis-Sumo (N, cleaved yes); made in house; host or cells: Rosetta(DE3) E. coli
T1 sequence (Q9BVA6 105-458 E234G): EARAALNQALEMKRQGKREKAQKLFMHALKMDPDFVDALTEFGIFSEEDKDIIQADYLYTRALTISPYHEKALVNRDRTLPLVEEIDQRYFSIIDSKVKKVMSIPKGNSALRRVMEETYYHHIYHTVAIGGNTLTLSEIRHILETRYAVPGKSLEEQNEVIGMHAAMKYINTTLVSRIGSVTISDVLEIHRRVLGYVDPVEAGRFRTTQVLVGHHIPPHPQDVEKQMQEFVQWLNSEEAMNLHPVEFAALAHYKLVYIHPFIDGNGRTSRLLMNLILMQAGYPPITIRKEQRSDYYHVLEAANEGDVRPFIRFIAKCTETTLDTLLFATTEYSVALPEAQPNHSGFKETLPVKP
As to the kind of experiment: Total (intact) mass analysis of FicD^E234G incubated with FPP. The note with it: 50uM FPP, 5mM MgCl2. From the text:
To reveal the mechanism of FicD inhibition by FPP, we leveraged the FicD^E234G mutant for structural studies. We soaked FPP into crystals of the FicD^E234G variant and solved the ligand-bound structure (Fig. 5 A and B). […] The diphosphate group of FPP closely overlapped with the ADP diphosphate when superimposed with a FicD^E234G-ADP structure (Fig. 5 A, Left), and the hydrophobic isoprenyl groups of FPP overlap with the nucleoside in the active site binding pocket (Fig. 5 A, Right). The FPP diphosphate binds directly to the side chains of N369, R371, with the sidechain of D367 coordinating the Mg^2+ (Fig. 5B). These interactions mimic those observed between ADP/ATP and FicD ([26]). […] As previously noted, only GPP and FPP could bind to and inhibit FicD, but analogs of the isoprenoid-pyrophosphate metabolites (geraniol, GMP, farnesol, FMP, DMAPP, and MVAPP) could not (Fig. 2 B–D). Together, these observations indicate both the pyrophosphate head and the long isoprenoid tail of GPP/FPP contribute to the binding with FicD. […]
Intact mass analysis of proteins was performed by the UT Southwestern Proteomics Core. Intact protein samples were analyzed by LC/MS, using a Sciex X500B QTOF mass spectrometer operating in positive ion mode, coupled to an Agilent 1290 Infinity II HPLC. […]

SMILES strings stand for the structures.

In the case of `CC(C)=CCC/C(C)=C/CC/C(C)=C/COP(=O)(O)OP(=O)(O)O` [FPP, farnesyl-pyrophosphate], the “mass shift associated with putative FPP automodification” value is reported as “no mass shift”.
